The test system of data set [1] is riboswitch TPPz (A. tabrizica thiC TPP aptamer). Nature of the data set: Luciferase reporter with TPPz riboswitch in HEK 293 cells. The data set is classed as cell-based, human. Conditions: FIG. 1. The text has this:
(§1) Riboswitch constructs: Aptamers were synthesized by Integrated DNA Technologies, Inc. and Golden Gate cloning strategy (New England Biolabs, NEB) was used to clone the synthesized aptamer sequences into intron-exon-intron cassette to replace the guanine aptamer in the G17 riboswitch cassette (see SEQ ID NO: 15 recited in WO 2016/126747, which is incorporated herein in its entirety) with a TPP aptamer from the Alishewanella tabrizica thiC gene (Microbiol Res. 2017 January; 195:71-80) or a TPP aptamer from the Escherichia coli thiM gene (Structure. 2006 September; 14(9):1459-68), generating riboswitch TPPz and TPPm, respectively.
(§2) Transfection: 3.5×10^4 human embryonic kidney (HEK) 293 cells were plated in a 96-well flat bottom plate the day before transfection. Plasmid DNA (500 ng) was added to a tube or a 96-well U-bottom plate. Separately, TransIT-293 reagent (Mirus; 1.4 μL) was added to 50 μL Optimem I media (Life Technologies) and allowed to sit for 5 minutes at room temperature (RT). Then, 50 μL of this diluted transfection reagent was added to the DNA, mixed, and incubated at RT for 20 min. Finally, 7 μL of this solution was added to a well of cells in the 96-well plate. Four hours after transfection, medium containing transfection solution was replaced by medium containing either TPP, fursultiamine, prosultiamine, bisbentiamine, beclotiamine hydrochloride, or sulbutiamine as aptamer inducers.
(§3) Firefly luciferase assay of cultured cells: Twenty-four hours after media change, plates were removed from the incubator, and equilibrated to RT for several minutes on a lab bench, then aspirated. Glo-lysis buffer (Promega, 100 μL, RT) was added, and the plates allowed to remain at RT for at least 5 minutes. Then, the well contents were mixed by 50 μL trituration, and 20 μL of each sample was mixed with 20 μL of bright-glo reagent (Promega) that had been diluted to 10% in glo-lysis buffer. 96 wells were spaced on an opaque white 384-well plate. Following a 5 min incubation at RT, luminescence was measured using a Tecan machine with 500 ms read time. The luciferase activity was expressed as mean arbitrary light units (ALU)±S.D., and fold induction was calculated as the quotient of the luciferase activity obtained from cells with TPP or analog treatment divided by the luciferase activity obtained from cells without TPP or analog treatment.

For data set [2], the system named is riboswitch TPPm (E. coli thiM TPP aptamer). Nature of the data set: Luciferase reporter with TPPm riboswitch in HEK 293 cells. As to conditions: FIG. 1. In kind it is cell-based, human.
Excerpt: as §1, §2, §3

Data set [3] deals with riboswitch 15D10. Put plainly: Luciferase reporter with 15D10 riboswitch (Luci-15D10) in HEK 293 cells. In kind it is cell-based, human. As to conditions: Homo sapiens, HEK293, 24 h, 50 μM; HEK 293 cells; Table 3; read-out: Fold increase in riboswitch 15D10-regulated luciferase expression, HEK. Summed up: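 Cells transfected with riboswitch-luciferase plasmid; 4 h later medium replaced with TPP or thiamine analogs (fursultiamine, prosultiamine, bisbentiamine, beclotiamine, sulbutiamine) as inducers.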
(In general: In a reporter assay the amount or activity of a reporter protein is the signal.)

The test system of data set [4] is riboswitch 15D10. Put plainly: Luciferase reporter with 15D10 riboswitch (Luci-15D10) in AML12 cells. In kind it is cell-based, mouse. Conditions: Mus musculus, AML12, 24 h, 50 μM; AML12 cells; Table 3; read-out: Fold increase in riboswitch 15D10-regulated luciferase expression, AML.
Data set [5] deals with luciferase expression in HEK 293 cells. Nature of the data set: Screen of aptamer libraries A1-A3 for gene regulation activity with fursultiamine. Conditions: 50 μM fursultiamine, FIG. 4A. The data set is classed as cell-based, human. On the procedure:
Three aptamer libraries A1, A2 and A3, were generated by randomizing nucleotides at 6 positions in, or adjacent to, regions J4-5, J2-4 and J3-2, respectively (see FIG. 3). Single bacterial colonies were picked and plasmids containing riboswitch constructs were screened in HEK 293 cells for improved gene regulation activity in response to 50 μM fursultiamine as compared to riboswitch 14G4. […] These riboswitches comprising re-engineered aptamer sequences also lead to significant enhancements of target gene expression in other cells types, including alpha mouse liver 12 (AML12), C2C12 (murine myoblast cell line), and adult retinal pigment epithelial cell line-19 (ARPE-19) (see FIG. 4B).

Substitutions are numbered along the chain they refer to.

On to `CC(=C(CCOC(=O)C(C)C)SSC(CCOC(=O)C(C)C)=C(C)N(C=O)Cc1cnc(C)nc1N)N(C=O)Cc1cnc(C)nc1N` (stereo in doubt) [sulbutiamine], for which the “effect on luciferase expression, riboswitch TPPz” value (“effect … riboswitch TPPz” below) in data set [1] is given as “weak or no effects on luciferase expression”. The “effect on luciferase expression, riboswitch TPPm” value (“effect … riboswitch TPPm” below) in data set [2] was “weak or no effects on luciferase expression”. With `C/C(=C(\CCO)SC(=O)c1ccc(Oc2ccccc2)cc1Cl)N(C=O)Cc1cnc(C)nc1N` [Compound M149, (Z)—S-(2-(N-((4-amino-2-methylpyrimidin-5-yl)methyl)formamido)-5-hydroxypent-2-en-3-yl) 2-chloro-4-phenoxybenzothioate], the fold induction at 50 µM in the data set with riboswitch 15D10 [3] was found to be 176; in the data set with riboswitch 15D10 [4] it was 383.

As for `C/C(=C(\CCO)SC(=O)c1c(C)cc(Oc2ccccc2)cc1F)N(C=O)Cc1cnc(C)nc1N` [Compound M150, (Z)—S-(2-(N-((4-amino-2-methylpyrimidin-5-yl)methyl)formamido)-5-hydroxypent-2-en-3-yl) 2-fluoro-6-methyl-4-phenoxybenzothioate], the values for the fold induction at 50 µM in the data set with riboswitch 15D10 [3] and in the data set with riboswitch 15D10 [4] were 12.3 and 12, respectively. The matching figures for `C/C(=C(\CCO)SC(=O)c1ccc(Oc2cccc(Cl)c2)cc1C)N(C=O)Cc1cnc(C)nc1N` [Compound M151, (Z)—S-(2-(N-((4-amino-2-methylpyrimidin-5-yl)methyl)formamido)-5-hydroxypent-2-en-3-yl) 4-(3-chlorophenoxy)-2-methylbenzothioate]: 20.5 and 231. Consider `C/C(=C(\CCO)SC(=O)c1ccc(Oc2ccccc2)cc1Oc1ccccc1)N(C=O)Cc1cnc(C)nc1N` [Compound M152, (Z)—S-(2-(N-((4-amino-2-methylpyrimidin-5-yl)methyl)formamido)-5-hydroxypent-2-en-3-yl) 2,4-diphenoxybenzothioate], for which the results for the fold induction at 50 µM with riboswitch 15D10 [3] and with riboswitch 15D10 [4] were 68.9 and 36.6, respectively. Consider `C/C(=C(\CCO)SC(=O)c1ccccc1Sc1ccccc1)N(C=O)Cc1cnc(C)nc1N` [Compound M153, (Z)—S-(2-(N-((4-amino-2-methylpyrimidin-5-yl)methyl)formamido)-5-hydroxypent-2-en-3-yl) 2-(phenylthio)benzothioate], for which the results for the fold induction at 50 µM with riboswitch 15D10 [3] and in the data set with riboswitch 15D10 [4] were 442 and 535, respectively.

With `C/C(=C(\CCO)SC(=O)c1ccccc1Oc1ccc(N2CCCC2=O)cc1)N(C=O)Cc1cnc(C)nc1N` [Compound M155, (Z)—S-(2-(N-((4-amino-2-methylpyrimidin-5-yl)methyl)formamido)-5-hydroxypent-2-en-3-yl) 2-(4-(2-oxopyrrolidin-1-yl)phenoxy)benzothioate], the fold induction at 50 µM worked out at 7.71 in the data set on riboswitch 15D10 [3] and 117 in the data set on riboswitch 15D10 [4]. The corresponding values for `C/C(=C(\CCO)SC(=O)c1ccc(C(C)(C)C)cc1Oc1cccc(C(C)(C)C)c1)N(C=O)Cc1cnc(C)nc1N` [Compound M156, (Z)—S-(2-(N-((4-amino-2-methylpyrimidin-5-yl)methyl)formamido)-5-hydroxypent-2-en-3-yl) 4-(tert-butyl)-2-(3-(tert-butyl)phenoxy)benzothioate] are 0.06 and 10.1.

On to `C/C(=C(\CCO)SC(=O)c1ccccc1Oc1cccc2ccccc12)N(C=O)Cc1cnc(C)nc1N` [Compound M157, (Z)—S-(2-(N-((4-amino-2-methylpyrimidin-5-yl)methyl)formamido)-5-hydroxypent-2-en-3-yl) 2-(naphthalen-1-yloxy)benzothioate], for which the results for the fold induction at 50 µM with riboswitch 15D10 [3] and in the data set with riboswitch 15D10 [4] were 118 and 316, respectively. In the case of `C/C(=C(\CCO)SC(=O)c1cc(Cl)ccc1Oc1ccccc1Cl)N(C=O)Cc1cnc(C)nc1N` [Compound M158, (Z)—S-(2-(N-((4-amino-2-methylpyrimidin-5-yl)methyl)formamido)-5-hydroxypent-2-en-3-yl) 5-chloro-2-(2-chlorophenoxy)benzothioate], the fold induction at 50 µM in the data set with riboswitch 15D10 [3] amounted to 96.9; in the data set with riboswitch 15D10 [4], 235. Turning to `C/C(=C(\CCO)SC(=O)c1cc(Cl)ccc1Oc1ccccc1Br)N(C=O)Cc1cnc(C)nc1N` [Compound M159, (Z)—S-(2-(N-((4-amino-2-methylpyrimidin-5-yl)methyl)formamido)-5-hydroxypent-2-en-3-yl) 2-(2-bromophenoxy)-5-chlorobenzothioate], the figures for the fold induction at 50 µM in the data set with riboswitch 15D10 [3] and in the data set with riboswitch 15D10 [4] were 85.5 and 206, respectively. As for `C/C(=C(\CCO)SC(=O)c1c(F)cccc1Oc1ccccc1Br)N(C=O)Cc1cnc(C)nc1N` [Compound M160, (Z)—S-(2-(N-((4-amino-2-methylpyrimidin-5-yl)methyl)formamido)-5-hydroxypent-2-en-3-yl) 2-(2-bromophenoxy)-6-fluorobenzothioate], the fold induction at 50 µM in the data set with riboswitch 15D10 [3] was 79.5; with riboswitch 15D10 [4], 131. Take `Cc1ncc(C[n+]2csc(CCCl)c2C)c(N)n1.Cl.[Cl-]` [beclotiamine hydrochloride]: the “effect … riboswitch TPPz” value in data set [1] is “weak or no effects on luciferase expression”. Also, the “effect … riboswitch TPPm” value in data set [2] is given as “weak or no effects on luciferase expression”. In the case of `C/C(=C(\CCOC(=O)c1ccccc1)SS/C(CCOC(=O)c1ccccc1)=C(/C)N(C=O)Cc1cnc(C)nc1N)N(C=O)Cc1cnc(C)nc1N` [bisbentiamine], the “effect … riboswitch TPPz” value in data set [1] is on record as “weak or no effects on luciferase expression”. Also, in data set [2], the “effect … riboswitch TPPm” value was “weak or no effects on luciferase expression”.

B1: 1D10: re-engineered aptamer, encoding sequence SEQ ID NO:8 (nucleic acid)
DNA: ACAGGGGTCCGGCCTTTTCATTTGGCGCCGGTGAGATTATACCCTTTGAACCTGTTTACGGATAATGCCGCCGCAGGGAGT
modifications: expressed or natural sequence
For the molecule B1, in data set [5], the “fursultiamine-dependent induction compared to parent construct 14G4” value is recorded as “increase in fursultiamine-dependent induction”.

B2: 6G12: re-engineered aptamer, encoding sequence SEQ ID NO:17 (nucleic acid)
DNA: B1 DNA with T37G, T38C, T40C, A49G
modifications: expressed or natural sequence
Regarding B2, the “fursultiamine-dependent induction compared to parent construct 14G4” value in data set [5] is reported as “increase in fursultiamine-dependent induction”.

B3: 6C4: re-engineered aptamer, encoding sequence SEQ ID NO:16 (nucleic acid)
DNA: B1 DNA with A3G, T37G, T38C, T40C, T47C
modifications: expressed or natural sequence
Regarding B3, the “fursultiamine-dependent induction compared to parent construct 14G4” value in data set [5] is “increase in fursultiamine-dependent induction”.

B4: 4H2: re-engineered aptamer, encoding sequence SEQ ID NO:15 (nucleic acid)
DNA: B1 DNA with T37G, T38C, T40C, T47C, A49G
modifications: expressed or natural sequence
Turning to B4, the “fursultiamine-dependent induction compared to parent construct 14G4” value in data set [5] is recorded as “increase in fursultiamine-dependent induction”.

B5: 3H4: re-engineered aptamer, encoding sequence SEQ ID NO:9 (nucleic acid)
DNA: B1 DNA with T37G, T38C, T40C, T57C, C72T
modifications: expressed or natural sequence
Turning to B5, in data set [5], the “fursultiamine-dependent induction compared to parent construct 14G4” value is “increase in fursultiamine-dependent induction”.

B6: 6B4: re-engineered aptamer, encoding sequence SEQ ID NO:14 (nucleic acid)
DNA: B1 DNA with T37G, T38C, T40C, T47G, G48T, A49G
modifications: expressed or natural sequence
For B6, the “fursultiamine-dependent induction compared to parent construct 14G4” value in data set [5] is on record as “increase in fursultiamine-dependent induction”.
